US4782073A, “Amides of [(5,6-dichloro-3-oxo-9-alpha-substituted-2,3,9,9-alpha-tetrahydrofluoren -7-yl-oxyl]acetic acids, and pharmaceutical compositions thereof” (Merck & Co., Inc., priority 1986, dated 1988)

Assays:
[1] = Protein binding (bovine serum albumin); format: in vitro ADME; settings: 4 × 10^-4 M bovine serum albumin
From the text: b. % Bound using 4 × 10^-4 M bovine serum albumin.

pKa = format: physicochemical; settings: read-out: pV-a
[2] = Distribution between octanol and aqueous buffer at pH 7.4; format: physicochemical
Method: a. Distribution between octanol and aqueous buffer at pH = 7.4 were
determined as described by R. A. Sherrer and S. M. Howard, J. Med. Chem.

[3] = tested on: cat cerebrocortical tissue slices; test: in vitro cat cerebrocortical tissue slice assay (inhibition of HCO3- stimulated swelling); format: cell-based; settings: Felis catus, 1 h, compounds dissolved as sodium salts, 60 min incubation at 37° C, read-out: I50, concentration giving 50% inhibition of swelling
From the text: The (1) in vitro cat cerebrocortical tissue slice assay, (2) the in vitro primary rat astrocyte culture assay and (3) the in vivo cat head injury assay. The first assay, the in vitro cat cerebrocortical tissue slice assay has been described by Marshall, L. F.; Shapiro, H. M.; Smith, R. W. In "Seminars in Neurological Surgery: Neural Trauma"; Popp, A. J.; Bourke, R. S.; Nelson, L. R.; Kimelberg, H, K,. Eds.; Raven Press: New York, 1979; p 347, by Bourke, R. S.; Kimelberg, H, K.; Daze, M. A. in Brain Res. 1978, 154, 196, and by Bourke, R. S.; Kimelberg, H. K,; Nelson, L. R. in Brain Res. 1976, 105, 309. This method constitutes a rapid and accurate method of determining the intrinsic chloride inhibitory properties of the compounds of the invention in the target tissue.
Using the in vitro cat cerebrocortical tissue slice assay, described in Example 1, compounds of the present invention can be tested for activity. This test provides the principal in vitro evaluation and consists of a determination of concentration vs. response curve. […]
Following the 60 minute incubation period, tissue slices were separated from incubation medium by filtration, reweighed, and homogenized in 1 N HClO4 (10% w/v) for electrolyte analysis. […] Control slice swelling is expressed as microliters per gram initial preswelling fresh weight. […]

astroglial edema = settings: in vitro assay, J. Med. Chem. 25, 567 (1982); cited from earlier work
[4] = tested on: clinical cases of head injury; settings: J. Med. Chem. 25, 567 (1982); cited from earlier work
[5] = tested on: animals receiving experimental in vivo head injury; settings: in vivo head injury assay, J. Med. Chem. 25, 567 (1982); cited from earlier work

| fraction unbound [1] | pKa (pKa) | logD [2] | IC50 [3] | Structure (SMILES) | activity in vitro (astroglial edema) | reduction of mortality in clinical cases of head injury [4] | activity in vivo [5] |
| --- | --- | --- | --- | --- | --- | --- | --- |
| 0.03 | 4.6 | 2 | – | CCC[C@]12CCC(=O)C=C1c1c(cc(OCC(=O)N[C@H](C(=O)O)C(C)C)c(Cl)c1Cl)C2 | – | – | – |
| 0.057 | 4.58 | 2 | – | CCC[C@]12CCC(=O)C=C1c1c(cc(OCC(=O)N[C@@H](Cc3ccccc3)C(=O)O)c(Cl)c1Cl)C2 | – | – | – |
| 0.022 | 4.12 | 1.99 | – | CCC[C@]12CCC(=O)C=C1c1c(cc(OCC(=O)N[C@@H](Cc3ccc(O)cc3)C(=O)O)c(Cl)c1Cl)C2 | – | – | – |
| 0.024 | 4.1 | 1.91 | – | CCC[C@]12CCC(=O)C=C1c1c(cc(OCC(=O)N[C@@H](CO)C(=O)O)c(Cl)c1Cl)C2 | – | – | – |
| 0.079 | 6.9 | 1.95 | – | CCC[C@]12CCC(=O)C=C1c1c(cc(OCC(=O)N[C@@H](Cc3c[nH]cn3)C(=O)O)c(Cl)c1Cl)C2 | – | – | – |
| 0.019 | 3.78 | 1.96 | – | CCC[C@]12CCC(=O)C=C1c1c(cc(OCC(=O)Nc3nnn[nH]3)c(Cl)c1Cl)C2 | – | – | – |
| 0.028 | 4.25 | 1.97 | 20 nM | CCC[C@]12CCC(=O)C=C1c1c(cc(OCC(=O)NS(C)(=O)=O)c(Cl)c1Cl)C2 [Example 4, R(+)-N-Methylsulfonyl-[(5,6-dichloro-3-oxo-9a-propyl-2,3,9,9a-tetrahydro-1H-fluoren-7-yl)oxy]acetamide] | – | – | – |
| 0.016 | 3.65 | 1.99 | – | CCC[C@]12CCC(=O)C=C1c1c(cc(OCC(=O)NC#N)c(Cl)c1Cl)C2 [Example 5, R(+)-N-Cyano-[(5,6-dichloro-3-oxo-9a-propyl-2,3,9,9a-tetrahydro-1H-fluoren-77-yl)oxy]acetamide] | – | – | – |
| – | 4.1 | 1.99 | 10 nM | CCC[C@]12CCC(=O)C=C1c1c(cc(OCC(=O)NS(=O)(=O)CC)c(Cl)c1Cl)C2 [SO2 C2 H5] | – | – | – |
| – | – | – | – | C=C(CC)C(=O)c1ccc(OCC(=O)O)c(Cl)c1Cl [ethacrynic acid] | exhibited activity | effective in reducing mortality | exhibited activity |
